Results: the NIST ThermoML archive (doi:10.1021/je030173e)

Key:
[1] = xn = mol fraction of the nth substance listed

COCCO [2-methoxyethan-1-ol] + O
surface tension liquid-gas [mN/m], [1]
Settings | 298.15 K | 308.15 K | 318.15 K
x1 = 0.0509 | 56.33 | 55.17 | 53.9
x1 = 0.0559 | 55.11 | 54.04 | 52.82
x1 = 0.1052 | 46.86 | 45.88 | 44.8
x1 = 0.1494 | 43.31 | 42.37 | 41.35
x1 = 0.2215 | 39.7 | 38.81 | 37.83
x1 = 0.3373 | 36.75 | 35.89 | 34.92
x1 = 0.4783 | 35.02 | 34.18 | 33.22
x1 = 0.6258 | 32.91 | 32.02 | 31.13
x1 = 0.7814 | 31.78 | 30.96 | 30.02
x1 = 0.8912 | 31.02 | 30.21 | 29.28
x1 = 1 | 30.82 | 30.02 | 29.1

O [water] + COCCOC
[1], x2 = 0
Settings | surface tension liquid-gas [mN/m]
298.15 K | 71.99
308.15 K | 70.38
318.15 K | 68.82

COCCOCCOCCO [2-[2-(2-methoxyethoxy)ethoxy]ethanol]
Settings | surface tension liquid-gas [mN/m]
298.15 K | 36.28
308.15 K | 35.79
318.15 K | 35.21

O [water] + COCCOCCO
[1], x2 = 0
Settings | surface tension liquid-gas [mN/m]
298.15 K | 71.99
308.15 K | 70.38
318.15 K | 68.82

COCCOCCO [2-(2-methoxyethoxy)ethanol]
Settings | surface tension liquid-gas [mN/m]
298.15 K | 34.73
308.15 K | 33.91
318.15 K | 32.95

COCCOCCOCCO [2-[2-(2-methoxyethoxy)ethoxy]ethanol] + O
surface tension liquid-gas [mN/m], [1]
Settings | x1 = 0.0564 | x1 = 0.0964 | x1 = 0.1673 | x1 = 0.3525 | x1 = 0.474 | x1 = 0.5536 | x1 = 0.6606 | x1 = 0.7512 | x1 = 0.8736 | x1 = 1
298.15 K | 54.62 | 47.43 | 41.73 | 40.45 | 39.1 | 37.76 | 37.13 | 36.91 | 36.69 | 36.28
308.15 K | 53.11 | 45.98 | 40.46 | 39.45 | 38.29 | 37.04 | 36.49 | 36.35 | 36.18 | 35.79
318.15 K | 51.53 | 44.95 | 39.01 | 38.12 | 37.42 | 36.12 | 35.85 | 35.46 | 35.29 | 35.21

O [water] + COCCO
[1], x2 = 0
Settings | surface tension liquid-gas [mN/m]
298.15 K | 71.99
308.15 K | 70.38
318.15 K | 68.82

COCCOC [1,2-dimethoxyethane]
Settings | surface tension liquid-gas [mN/m]
298.15 K | 23.79
308.15 K | 22.91
318.15 K | 21.89

COCCOCCO [2-(2-methoxyethoxy)ethanol] + O
surface tension liquid-gas [mN/m], [1]
Settings | 298.15 K | 308.15 K | 318.15 K
x1 = 0.0374 | 58.57 | 57.12 | 55.97
x1 = 0.0558 | 55.28 | 53.9 | 52.21
x1 = 0.1191 | 45.14 | 43.86 | 43.13
x1 = 0.1951 | 41.05 | 39.78 | 38.96
x1 = 0.3021 | 40.02 | 38.8 | 38.55
x1 = 0.4427 | 38.27 | 37.12 | 36.31
x1 = 0.491 | 37.57 | 36.46 | 35.26
x1 = 0.5502 | 36.87 | 35.92 | 34.53
x1 = 0.7494 | 35.37 | 34.49 | 33.45
x1 = 0.8564 | 35.02 | 34.18 | 33.12
x1 = 1 | 34.73 | 33.91 | 32.95

O [water] + COCCOCCOCCO
[1], x2 = 0
Settings | surface tension liquid-gas [mN/m]
298.15 K | 71.99
308.15 K | 70.38
318.15 K | 68.82

COCCOC [1,2-dimethoxyethane] + O
surface tension liquid-gas [mN/m], [1]
Settings | x1 = 0.047 | x1 = 0.066 | x1 = 0.0759 | x1 = 0.1286 | x1 = 0.1942 | x1 = 0.2612 | x1 = 0.4132 | x1 = 0.6313 | x1 = 1
298.15 K | 48.35 | 42.42 | 40.62 | 31.96 | 28.55 | 27.81 | 26.08 | 25.41 | 23.79
308.15 K | 46.83 | 40.97 | 39.26 | 30.69 | 27.43 | 26.81 | 25.12 | 24.49 | 22.91
318.15 K | 46.47 | 40.62 | 37.71 | 29.26 | 26.53 | 25.92 | 24.78 | 23.6 | 21.89

COCCO [2-methoxyethan-1-ol]
Settings | surface tension liquid-gas [mN/m]
298.15 K | 30.82
308.15 K | 30.02
318.15 K | 29.1

O [water]
Settings | surface tension liquid-gas [mN/m]
298.15 K | 71.99
308.15 K | 70.38
318.15 K | 68.82
